{
  "source": "patent US11958868B2",
  "about": "“Methods of using metal complexes to promote wound healing” (University of Macau, priority 2022, dated 2024)",
  "key": {"[1]": {"test_system": "oxygen depletion, PHD inhibition, proteasomal inhibition", "test": "Alternative mechanisms of HIF activation (oxygen depletion, PHD inhibition, proteasomal inhibition)"}, "[2]": {"test_system": "HIF-2a", "test": "Effect on HIF-2a level and activity", "assay_type": "cell-based"}, "[3]": {"molecular_target": "VHL (Homo sapiens, UniProt P40337)", "sequence (P40337 whole entry)": "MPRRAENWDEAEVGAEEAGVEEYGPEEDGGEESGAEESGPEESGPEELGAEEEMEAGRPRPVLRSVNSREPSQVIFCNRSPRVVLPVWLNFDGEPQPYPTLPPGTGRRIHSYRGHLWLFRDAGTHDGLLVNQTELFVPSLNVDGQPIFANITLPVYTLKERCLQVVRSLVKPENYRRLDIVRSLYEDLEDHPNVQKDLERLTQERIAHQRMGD", "sequence (Q15370 whole entry partner)": "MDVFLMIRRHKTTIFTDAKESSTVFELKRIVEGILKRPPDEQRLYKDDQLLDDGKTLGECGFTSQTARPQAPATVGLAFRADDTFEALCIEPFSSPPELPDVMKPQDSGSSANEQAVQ", "sequence (Q15369 whole entry partner)": "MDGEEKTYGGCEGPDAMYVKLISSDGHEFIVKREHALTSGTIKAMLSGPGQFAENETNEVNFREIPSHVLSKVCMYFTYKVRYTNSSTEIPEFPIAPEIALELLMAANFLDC", "test": "Cellular thermal shift assay (CETSA) in HEK293 cell lysates, VHL", "assay_type": "binding", "design": "monitor the target engagement of 1a in HEK293 cell lysates; endogenous in cells; host or cells: HEK293 cell lysate", "conditions": "3 μM, 30 min", "description": "HEK293 cells were treated with vehicle DMSO (1% for 2 h), 1a (0.3, 1, 3, 6 and 9 μM for 2 h), VH298 (100 μM for 2 h), MG132 (20 μM for 3 h), or FG-4592 (100 μM for 2 h) before lysis. Cell lysates were collected and incubated with VHL antibody overnight at 4° C. The proteins were immunoprecipitated using agarose beads. The levels of hydroxy-HIF-1α co-precipitated with VHL were detected using a hydroxy-HIF-1α antibody, and then visualized using ECL Western Blotting Detection Reagent (GE Healthcare). (B) Cellular thermal shift assays to monitor cellular target engagement of VHL and HIF-1α. HEK293 cell lysates were treated with 1a (3 μM) at room temperature for 30 min and then heated at different temperature ranging from 48° C. to 68° C. for 5 min. The protein samples were collected and detected by Western blotting using either VHL or PHD2 antibodies. (C) Fluorescence-based protein thermal shift assay of VBC in the presence or absence of VH298 (100 μM) and complex 1a (100 μM). […] Data are expressed as means±SD (n=3 independent experiments for figures a and b, samples for figures c and e), P values were calculated using a two-sided t-test. *P<0.05, **P<0.01 vs. DMSO group.\nAfter incubating HEK293 cell lysates with complex 1a followed by heating to set temperatures, VHL and PHD2 levels in the soluble fraction were quantitated by Western blotting. […]"}, "[4]": {"test": "Body weight, blood glucose and toxicity in treated mice", "assay_type": "in vivo", "text": "(§1) The mice were maintained for 3 days. […] All experiments complied with all relevant ethical regulations."}, "[5]": {"test_system": "full-thickness skin wounds in high-fat diet-fed, streptozotocin-treated diabetic mice (HFD/STZ)", "conditions": "1.25 mg/kg i.p. every other day", "description": "(§2) The db/db and age-matched wide-type (WT) mice were locally administered with vehicle (0.8% w/v Carbopol 974P NF in distilled water, pH 7.0) and 0.25 mg/mL complex 1a (mixed in 0.8% w/v Carbopol 974P NF in distilled water) every other day for 8 days, respectively (FIG. 4a). […] STZ mice were obtained by a single injection of high-dose streptozotocin (150 mg/kg) (Supplementary FIG. 10a). HFD/STZ mice were generated by 8 weeks high-fat diet feeding, followed by low-dose streptozotocin injection for 7 days (40 mg/kg/day) (Supplementary FIG. 11a). 3 days after streptozotocin injection, STZ or HFD/STZ mice with fasting blood glucose levels between 15 and 28 mmol/L were considered as diabetic mice and used in wound healing experiments. STZ and HFD/STZ mice were intraperitoneally injected with either vehicle (PEG 400: distilled water=6:4, v/v) or 1.25 mg/kg complex 1a every other day for 8 days, respectively.\n(§3) In the wound healing experiment, two full-thickness skin lesions were excised in interscapular area of each mouse, and the wound area was monitored every other day.\n(§4) Male db/db mice were purchased from the Model Animal Research Center of Nanjing University (Nanjing, China). Male C57BL/6J mice were purchased from the animal facility of Faculty of Health Sciences, University of Macau."}, "[6]": {"test_system": "full-thickness skin wounds in leptin-receptor deficient (db/db) diabetic mice", "conditions": "0.25 mg/mL topical every other day", "description": "as §2, §3, §4"}, "[7]": {"test_system": "full-thickness skin wounds in streptozotocin-induced diabetic mice (STZ)", "test": "Skin wound model in STZ diabetic mice, intraperitoneal", "assay_type": "in vivo", "conditions": "1.25 mg/kg i.p. every other day", "text": "as §1\nMice were anesthetized by inhalation of 3% isoflurane."}},
  "data": [
    {"molecule": "COc1cc[n+]2c3c1ccc1c(OC)cc[n+](c13)[Ir-3]213([c]2ccccc2-c2cccc[n+]21)[c]1ccccc1-c1cccc[n+]13.F[P-](F)(F)(F)(F)F", "note": "[1a]", "values": [
      {"measurement": "Activation of HIF signaling via oxygen depletion, PHD inhibition and/or proteasomal inhibition", "setting": "[1]", "result": "unlikely to activate HIF signaling via oxygen depletion, PHD inhibition, and/or proteasomal inhibition"},
      {"measurement": "Level and activity of HIF-2a", "setting": "[2]", "result": "no effect on the level and activity of HIF-2a"},
      {"measurement": "Shift in the VHL melting curve (CETSA)", "setting": "[3]", "result": "about 6 °C"},
      {"measurement": "Blood glucose levels or body weight", "setting": "[4]; HFD/STZ and STZ models, diabetic and NC mice, 1.25 mg/kg i.p.", "result": "neither diabetic nor normal control mice (NC) showed obvious changes in blood glucose levels or body weight"},
      {"measurement": "Body weight after local application", "setting": "[4]; WT and db/db mice, 0.25 mg/mL topical, 8 days", "result": "did not affect body weight"},
      {"measurement": "Toxicity in animal models of diabetes", "setting": "[4]; db/db, HFD/STZ and STZ", "result": "without significant toxicity"},
      {"measurement": "Rate of wound closure, HFD/STZ mice, 4 days", "setting": "[5]; 4 days post-injury", "result": 62, "unit": "%"},
      {"measurement": "Rate of wound closure, HFD/STZ mice, 8 days", "setting": "[5]; 8 days post-injury", "result": 82, "unit": "%"},
      {"measurement": "Rate of wound closure, db/db mice, 4 days", "setting": "[6]; 4 days post-injury", "result": "about 28%"},
      {"measurement": "Rate of wound closure, db/db mice, 8 days", "setting": "[6]; 8 days post-injury", "result": "~40", "unit": "%"},
      {"measurement": "Rate of wound closure, STZ mice, 4 days", "setting": "[7]; 4 days post-injury", "result": 50, "unit": "%"},
      {"measurement": "Rate of wound closure, STZ mice, 8 days", "setting": "[7]; 8 days post-injury", "result": 76, "unit": "%"}
    ]}
  ]
}
